{
  "source": "patent US6448293B1",
  "about": "“Diphenyl ether compounds useful in therapy” (Pfizer Inc., priority 2000, dated 2002)",
  "note": "Counter-ions that a name gives are not always drawn.",
  "data": [
    {"target": "T1, human serotonin transporter (hSERT) (Homo sapiens, UniProt P31645)", "T1 construct": "expressed in transfected cells; host or cells: HEK-293 (human embryonic kidney cells), stably transfected", "T1 sequence (P31645 whole entry)": "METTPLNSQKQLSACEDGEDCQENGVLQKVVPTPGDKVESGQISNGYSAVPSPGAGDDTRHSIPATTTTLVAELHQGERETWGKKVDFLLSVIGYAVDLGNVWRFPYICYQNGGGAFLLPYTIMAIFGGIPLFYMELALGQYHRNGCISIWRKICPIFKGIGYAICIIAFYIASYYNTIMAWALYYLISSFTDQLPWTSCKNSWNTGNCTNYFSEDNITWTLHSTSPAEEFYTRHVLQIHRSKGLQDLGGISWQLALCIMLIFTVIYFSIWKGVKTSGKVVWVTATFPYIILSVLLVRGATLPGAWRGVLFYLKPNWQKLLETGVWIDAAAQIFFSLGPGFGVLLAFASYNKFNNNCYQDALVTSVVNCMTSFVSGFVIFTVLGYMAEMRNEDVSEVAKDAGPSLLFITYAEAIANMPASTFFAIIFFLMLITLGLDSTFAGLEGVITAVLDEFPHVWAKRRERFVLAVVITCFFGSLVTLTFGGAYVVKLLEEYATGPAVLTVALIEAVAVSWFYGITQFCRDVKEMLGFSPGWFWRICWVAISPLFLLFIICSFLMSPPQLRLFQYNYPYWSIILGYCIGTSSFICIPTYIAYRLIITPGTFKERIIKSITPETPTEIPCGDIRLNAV", "test": "Inhibition of 3H-Serotonin uptake into HEK-293 cells stably transfected with hSERT", "type": "cell-based", "settings": "not given", "experimental": "(§1) A number of compounds were tested for biological activity by their ability to inhibit the uptake of serotonin by human serotonin transporters as follows.\n(§2) Human embryonic kidney cells (HEK-293) stably transfected with either the human serotonin transporter (hSERT), noradrenaline transporter (hNET) or dopamine transporter (hDAT) were cultured under standard cell culture techniques (cells were grown at 37° C and 5% CO2 in DMEM-culture media (supplemented with 10% dialysed foetal calf serum (FCS), 2 mM 1-glutamine and 250 μg/ml geneticin)). Cells were harvested for the assay to yield a cell suspension of 750,000 cells/ml.\n(§3) (i) Determination of inhibitor potency\n(§4) All test compounds were dissolved in 100% DMSO and diluted down in assay buffer to give appropriate test concentrations. Assays were carried out in 96-well filter bottom plates. Cells (7500 cells/assay well) were pre-incubated in standard assay buffer containing either test compound, standard inhibitor or compound vehicle (1 % DMSO) for 5 minutes. Reactions were started by addition of either ^3H-Serotonin, ^3H-Noradrenaline or ^3H-Dopamine substrates. All reactions were carried out at room temperature in a shaking incubator. Incubation times were 5 minutes for the hSERT and hDAT assays and 15 minutes for the hNET assay. Reactions were terminated by removal of the reaction mixture using a vacuum manifold followed by rapid washing with ice cold assay buffer. The quantity of ^3H-substrate incorporated into the cells was then quantified.\n(§5) Assay plates were dried in a microwave oven, scintillation fluid added, and radioactivity measured.\n(§6) (iii) Standard Assay Buffer Composition:\n(§7) Note: The pH of the buffer was adjusted to 7.40 with 1 M NaOH before addition of CaCI2 and pargyline.\n(§8) (iv) Summary of Assay Parameters", "units": {"IC50": "nM"}, "values": [
      {"smiles": "CSc1ccc(Oc2ccc(-n3nccn3)cc2CN(C)C)cc1", "note": "[Example 183, N,N-Dimethyl-N-[2-[4-(methylsulfanyl)phenoxy]-5-(2 H-1,2,3-triazol-2-yl)benzyl]amine]", "IC50": "≤ 50"},
      {"smiles": "CSc1ccc(Oc2ccc(-n3cnnc3)cc2CN(C)C)cc1", "note": "[Example 189, N-[2-[4-(Methylsulfanyl)phenoxy]-5-(4H-1,2,4-triazol-4-yl)benzyl]-N,N-dimethylamine]", "IC50": "≤ 50"},
      {"smiles": "CNCc1cc(-n2ccnc2)ccc1Oc1ccc(SC)cc1", "note": "[Example 185, N-[2-[4-(Methylsulfanyl)phenoxy]-5-(1 H-imidazol-1-yl)benzyl]-N-methylamine]", "IC50": "≤ 50"},
      {"smiles": "CNCc1cc(-n2ccnn2)ccc1Oc1ccc(SC)cc1", "note": "[Example 181, N-Methyl-N-[2-[4-(methylsulfanyl)phenoxy]-5-(1 H-1,2,3-triazol-1-yl)benzyl]amine]", "IC50": "≤ 50"},
      {"smiles": "CNCc1cc(-n2nccn2)ccc1Oc1ccc(SC)cc1", "note": "[Example 182, N-methyl-N-[2-[4-(methylsulfanyl)phenoxy]-5-(2 H-1,2,3-triazol-2-yl)benzyl]amine]", "IC50": "≤ 50"},
      {"smiles": "CNCc1cc(Br)ccc1Oc1ccc(SC)cc1", "note": "[Example 23, N-{5-Bromo-2-[4-(methylsulfanyl)phenoxy]benzyl}-N-methylamine]", "IC50": "≤ 50"},
      {"smiles": "CNCc1cc(-n2cncn2)ccc1Oc1ccc(SC)cc1", "note": "[Example 187, N-Methyl-N-[2-[4-(methylsulfanyl)phenoxy]-5-(1 H-1,2,4-triazol-1-yl)benzyl]amine]", "IC50": "≤ 50"},
      {"smiles": "CSc1ccc(Oc2ccc(NS(=O)(=O)C(F)(F)F)cc2CN(C)C)cc1", "note": "[Example 140, N-{3-[(Dimethylamino)methyl]-4-[4-(methylsulfanyl)phenoxy]phenyl}-(trifluoro)methanesulfonamide]", "IC50": "≤ 50"}
    ]},
    {"target": "T1, human serotonin transporter (hSERT)", "test": "Inhibition of 3H-Serotonin uptake into HEK-293 cells stably transfected with hSERT", "type": "cell-based", "settings": "HEK-293 cells transfected with hSERT, 3H-Serotonin uptake, 5 minutes incubation, room temperature; read-out: serotonin re-uptake inhibition (SRI) IC50", "experimental": "as §1, §2, §3, §4, §5, §6, §7, §8", "units": {"IC50": "nM"}, "values": [
      {"smiles": "CNCc1cc(C(N)=O)ccc1Oc1ccc(SC)c(OC)c1", "note": "[Example 169, 4-[3-Methoxy-4-(methylsulfanyl)phenoxy]-3-[(methylamino)methyl]benzamide]", "IC50": "≤ 50"},
      {"smiles": "CN(C)Cc1cc(S(N)(=O)=O)ccc1Oc1ccc(OC(F)(F)F)cc1", "note": "[Example 36]", "IC50": "≤ 50"},
      {"smiles": "CSc1ccc(Oc2ccc(OC(F)(F)F)cc2)c(CN(C)C)c1", "note": "[Example 141, N,N-Dimethyl-N-{5-(methylsulfanyl)-2-[4-(trifluoromethoxy)phenoxy]benzyl}amine]", "IC50": "≤ 50"},
      {"smiles": "CNCc1cc(N(CCO)S(C)(=O)=O)ccc1Oc1ccc(SC)cc1", "note": "[Example 130]", "IC50": "≤ 50"},
      {"smiles": "CN(C)Cc1cc(C(N)=O)ccc1Oc1ccc(OC(F)(F)F)cc1", "note": "[Example 94]", "IC50": "≤ 50"},
      {"smiles": "CNCc1cc(C#N)ccc1Oc1ccc(SC)cc1", "note": "[Example 87, 3-[(Methylamino)methyl]-4-[4-(methylsulfanyl)phenoxy]benzonitrile]", "IC50": "≤ 50"},
      {"smiles": "CNCc1cc(C(=O)N[C@@H](C)CO)ccc1Oc1ccc(SC)cc1", "note": "[Example 174]", "IC50": "≤ 50"},
      {"smiles": "CSc1ccc(Oc2ccc(S(N)(=O)=O)cc2CN(C)C)cc1", "note": "[Example 28, 3-[(Dimethylamino)methyl]-4-[4-(methylsulfanyl)phenoxy]benzenesulfonamide]", "IC50": "≤ 50"},
      {"smiles": "CN(C)Cc1cc(CO)ccc1Oc1ccc(OC(F)(F)F)cc1", "note": "[Example 157]", "IC50": "≤ 50"},
      {"smiles": "CNCc1cc(-n2ccc(N)n2)ccc1Oc1ccc(SC)cc1", "note": "[Example 190, N-{5-(3-Amino-1H-pyrazol-1-yl)-2-[4-(methylsulfanyl)phenoxy]benzyl}-N-methylamine]", "IC50": "≤ 50"},
      {"smiles": "CSc1ccc(Oc2ccc(C(N)=O)cc2CN(C)C)cc1", "note": "[Example 91, 3-[(Dimethylamino)methyl]-4-[4-(methylsulfanyl)phenoxy]benzamide]", "IC50": "≤ 50"},
      {"smiles": "CN(C)Cc1cc(NS(C)(=O)=O)ccc1Oc1ccc(C(F)(F)F)cc1", "note": "[Example 114, N-(3-[(Dimethylamino)methyl]-4-[4-(trifluoromethyl)phenoxy]phenyl} methanesulfonamide]", "IC50": "≤ 50"},
      {"smiles": "CSc1ccc(Oc2ccc(S(=O)(=O)N[C@@H](C)CO)cc2CN(C)C)cc1", "note": "[Example 53]", "IC50": "≤ 50"},
      {"smiles": "CNCc1cc(C(=O)NCCOC)ccc1Oc1ccc(SC)cc1", "note": "[Example 170]", "IC50": "≤ 50"},
      {"smiles": "CNS(=O)(=O)c1ccc(Oc2ccc(C(F)(F)F)cc2)c(CN(C)C)c1", "note": "[Example 30]", "IC50": "≤ 50"},
      {"smiles": "CSc1ccc(Oc2ccc(Br)cc2CN(C)C)cc1", "note": "[Example 9]", "IC50": "≤ 50"},
      {"smiles": "CN(C)Cc1cc(C(N)=O)ccc1Oc1ccc(C(F)(F)F)cc1", "note": "[Example 95]", "IC50": "≤ 50"},
      {"smiles": "CSc1ccc(Oc2ccc(-n3ccnn3)cc2CN(C)C)cc1", "note": "[Example 184, N,N-Dimethyl-N-[2-[4-(methylsulfanyl)phenoxy]-5-(1 H-1,2,3-triazol-1-yl)benzyl]-amine]", "IC50": "≤ 50"},
      {"smiles": "CN(C)Cc1cc(CN)ccc1Oc1ccc(OC(F)(F)F)cc1", "note": "[Example 110, N-{5-(Aminomethyl)-2-[4-(trifluoromethoxy)phenoxy]benzyl}-N,N-dimethylamine]", "IC50": "≤ 50"},
      {"smiles": "CNCc1cc(O)ccc1Oc1ccc(SC)cc1", "note": "[Example 74, 3-[(Methylamino)methyl]-4-[4-(methylsulfanyl)phenoxy]phenol]", "IC50": "≤ 50"},
      {"smiles": "CNC(=O)c1ccc(Oc2ccc(OC(F)(F)F)cc2)c(CN(C)C)c1", "note": "[Example 101]", "IC50": "≤ 50"},
      {"smiles": "CN(C)Cc1ccc(C(N)=O)cc1Oc1ccc(C(F)(F)F)cc1", "note": "[Example 90, 4-[(Dimethylamino)methyl]-3-[4-(trifluoromethyl)phenoxy]benzamide]", "IC50": "≤ 50"},
      {"smiles": "CN(C)Cc1cc([S+](C)[O-])ccc1Oc1ccc(C(F)(F)F)cc1", "note": "(stereo not shown) [Example 147]", "IC50": "≤ 50"},
      {"smiles": "CN(C)Cc1cc(Br)ccc1Oc1ccc(C(F)(F)F)cc1", "note": "[Example 3]", "IC50": "≤ 50"},
      {"smiles": "CN(C)Cc1cc(CNS(C)(=O)=O)ccc1Oc1ccc(OC(F)(F)F)cc1", "note": "[Example 117]", "IC50": "≤ 50"},
      {"smiles": "CSc1ccc(Oc2ccc(Cl)cc2CN(C)C)cc1", "note": "[Example 135]", "IC50": "≤ 50"},
      {"smiles": "CNCc1cc(C(=O)NC)ccc1Oc1ccc(SC)c(OC)c1", "note": "[Example 176]", "IC50": "≤ 50"},
      {"smiles": "CN(C)Cc1cc(S(C)(=O)=O)ccc1Oc1ccc(OC(F)(F)F)cc1", "note": "[Example 145, N,N-Dimethyl-N-{5-(methylsulfonyl)-2-[4-(trifluoromethoxy)phenoxy]benzyl}amine]", "IC50": "≤ 50"},
      {"smiles": "CSc1ccc(Oc2ccc(-n3cncn3)cc2CN(C)C)cc1", "note": "[Example 188, N,N-dimethyl-N-[2-[4-(methylsulfanyl)phenoxy]-5-(1 H-1,2,4-triazol-1-yl)benzyl]-amine]", "IC50": "≤ 50"},
      {"smiles": "CN(C)Cc1ccc(CNS(C)(=O)=O)cc1Oc1ccc(OC(F)(F)F)cc1", "note": "[Example 120]", "IC50": "≤ 50"},
      {"smiles": "CN(C)Cc1cc(NS(C)(=O)=O)ccc1Oc1ccc(OC(F)(F)F)cc1", "note": "[Example 116]", "IC50": "≤ 50"},
      {"smiles": "CN(C)Cc1ccc(C(N)=O)cc1Oc1ccc(OC(F)(F)F)cc1", "note": "[Example 98, 4-[(Dimethylamino)methyl]-3-[4-(trifluoromethoxy)phenoxy]benzamide]", "IC50": "≤ 50"},
      {"smiles": "CNCc1cc(NS(C)(=O)=O)ccc1Oc1ccc(SC)cc1", "note": "[Example 128, N-{3-[(Methylamino)methyl]-4-[4-(methylsulfanyl)phenoxy]phenyl}methanesulfonamide]", "IC50": "≤ 50"},
      {"smiles": "CNCc1cc(C(N)=O)ccc1Oc1ccc(SC)cc1", "note": "[Example 97]", "IC50": "≤ 50"},
      {"smiles": "CNCc1cc(CO)ccc1Oc1ccc(SC)cc1", "note": "[Example 156, {3-[(Methylamino)methyl]-4-[4-(methylsulfanyl)phenoxy]phenyl}methanol]", "IC50": "≤ 50"},
      {"smiles": "CSc1ccc(Oc2ccc(C#N)cc2CN(C)C)cc1", "note": "[Example 85]", "IC50": "≤ 50"},
      {"smiles": "CN(C)Cc1cc(C#N)ccc1Oc1ccc(OC(F)(F)F)cc1", "note": "[Example 84]", "IC50": "≤ 50"},
      {"smiles": "CC[S+]([O-])c1ccc(CN(C)C)c(Oc2ccc(C(F)(F)F)cc2)c1", "note": "(stereo not shown) [Example 148]", "IC50": "≤ 50"},
      {"smiles": "CNCc1cc(NS(C)(=O)=O)ccc1Oc1ccc(C(F)(F)F)cc1", "note": "[Example 121, N-{3-[(Methylamino)methyl]-4-[4-(trifluoromethyl)phenoxy]phenyl}-methanesulfonamide]", "IC50": "≤ 50"},
      {"smiles": "COc1ccc(Oc2ccc(SC)cc2)c(CN(C)C)c1", "note": "[Example 14]", "IC50": "≤ 50"}
    ]},
    {"system": "not given", "test": "not given", "settings": "not given", "units": {"melting point": "°C"}, "values": [
      {"smiles": "CSc1ccc(Oc2ccc(S(N)(=O)=O)cc2CN(C)C)cc1", "note": "(as salt: hydrochloride) [Example 28, 3-[(Dimethylamino)methyl]-4-[4-(methylsulfanyl)phenoxy]benzenesulfonamide]", "melting point": "193 to 194"}
    ]}
  ]
}
